Data as given in ChEMBL document CHEMBL3507680, “University of Dundee, Gates Library screen for HepG2 cell viability”.

Assay: Human HepG2 cell viability assay in 384 well format
Type: toxicity, cell-based
Design: dose 125 nL, time 70.5 hour; concentration not given beside the values
Settings: HepG2 cells, read-out: Inhibition
In the case of `CCN(Cc1ccncc1)CC1(O)CCN(C(=O)c2ccccc2C)C1` (stereo not given), the cytotoxicity at 70.5 h is reported as -2.28%. For `CNc1cncc(C2CCCN2S(=O)(=O)c2ccccc2)n1` (stereo not given), the cytotoxicity at 70.5 h was 0.983%. For `CS(=O)(=O)c1cn[nH]c1C1CCCCN1C(=O)c1cncs1` (stereo not given), the cytotoxicity at 70.5 h was -6.78%. Work on `Cn1nccc1CCC(=O)N1CCCC(c2cnccn2)C1` (stereo not given) yielded a cytotoxicity at 70.5 h of 12.9%. `CNC(=O)c1ccc(C2CCCN(C(=O)c3c(C)noc3C)C2)nc1` (stereo not given) gave a cytotoxicity at 70.5 h of -7.86%. Compound `CC(=O)N1CCC(Cc2cncc(-c3c(C)n[nH]c3C)n2)C1` (stereo not given) has a cytotoxicity at 70.5 h of -9.36%. For `CC1CCN(CCNCc2cc(-c3ccccc3)cn3nnnc23)CC1`, the cytotoxicity at 70.5 h was -3.94%. In the case of `COCCN1CCN(Cc2cnc(C)nc2)CC1`, the cytotoxicity at 70.5 h is reported as -6.04%. `Cn1ccnc1C(=O)N1CCOC(Cc2ccccc2Cl)C1` (stereo not given) gave a cytotoxicity at 70.5 h of 11.6%. For `O=C(CCn1ccnc1)N1C[C@@H](O)[C@H](Oc2cccc(F)c2)C1`, the cytotoxicity at 70.5 h was 0.895%. `Cc1cc(C)nc(C2CCN(C(=O)c3c(C)noc3C)C2)n1` (stereo not given) gave a cytotoxicity at 70.5 h of -3.76%. Compound `Cc1cc(C)nc(C2CCN(C(=O)c3cncnc3C)C2)n1` (stereo not given) has a cytotoxicity at 70.5 h of 12.9%. `O=S(=O)(c1ccc(F)c(F)c1)N1CCCC(c2nccs2)C1` (stereo not given) showed a cytotoxicity at 70.5 h of 1.6%. `CCc1nnc(Nc2cccc(C3CCN(c4cnccn4)CC3)n2)s1` showed a cytotoxicity at 70.5 h of 14.7%. `CCc1nnc(Nc2cccc(C3CCN(C(=O)CNC)CC3)n2)s1` showed a cytotoxicity at 70.5 h of 10.1%. Compound `CCc1nnc(Nc2cccc(C3CCN(C(=O)CN(C)C)CC3)n2)s1` has a cytotoxicity at 70.5 h of 9.15%. `c1ccc(CN2CCC(c3nccnc3-n3ccnc3)CC2)cc1` showed a cytotoxicity at 70.5 h of -14.9%. Compound `CCc1nnc(Nc2cccc(C3CCCN(CC(C)(C)C)C3)n2)s1` (stereo not given) has a cytotoxicity at 70.5 h of -10.7%. `CCC(=O)N1CCC(Cc2ccccc2-c2ccncc2)(C(N)=O)C1` (stereo not given) showed a cytotoxicity at 70.5 h of -10.9%. With `CC(C)c1ncc(CN2CCOC(C(=O)Nc3ccccc3)C2)cn1` (stereo not given) the cytotoxicity at 70.5 h was -9.69%. For `Cc1ccc(C(=O)N2CCCCC2CN(C)C)cc1` (stereo not given), the cytotoxicity at 70.5 h was 4.31%. In the case of `COCCCNC(=O)CN(C)C(C)c1nc(C)no1` (stereo not given), the cytotoxicity at 70.5 h is reported as -3.18%. Compound `CC(C#N)CN(C)C(=O)CCNC(=O)C(C)(C)C` (stereo not given) has a cytotoxicity at 70.5 h of 0.0301%. Compound `Cc1nc(CN2CCOC3(CCCC3)C2)oc1C` has a cytotoxicity at 70.5 h of -4.4%. Work on `CCN1CCOC(CNCc2cnc(C(C)(C)C)s2)C1` (stereo not given) yielded a cytotoxicity at 70.5 h of -5.25%. Compound `CNC(=O)CN1CCC(CN(C)Cc2ccccc2N(C)C)CC1` has a cytotoxicity at 70.5 h of 1.48%. `CC(O)CN(C)C(=O)CCNC(=O)OC(C)(C)C` (stereo not given) showed a cytotoxicity at 70.5 h of -3.37%. In the case of `COc1c(Cl)cc(Cl)cc1CN1CCC(C(N)=O)C1` (stereo not given), the cytotoxicity at 70.5 h is reported as 8.49%. Compound `COc1ccccc1/C=C/CNCC1CCc2nncn2C1` (stereo not given) has a cytotoxicity at 70.5 h of 8.27%. With `Cc1cc(C)cc(NCCC(=O)NC2CCN(C(=O)C3CC3)CC2)c1` the cytotoxicity at 70.5 h was -2.45%. In the case of `CCOC1CCN(C(=O)c2ccc(-c3cccc(C)c3)[nH]c2=O)CC1`, the cytotoxicity at 70.5 h is reported as -8.75%. For `Cc1cccc(-c2ccc(C(=O)N3CCN(C(C)C)CC3)c(=O)[nH]2)c1`, the cytotoxicity at 70.5 h was -2.78%. `O=C(c1ccc(-c2ccccc2)[nH]c1=O)N1CCN(C2CC2)CC1` gave a cytotoxicity at 70.5 h of -8.84%. In the case of `COc1ccccc1CC(C)CC(=O)NC(C)C` (stereo not given), the cytotoxicity at 70.5 h is reported as 0.743%. In the case of `CCOc1c(F)cccc1C(=O)N(C)CCc1ccccn1`, the cytotoxicity at 70.5 h is reported as 36.5%. `CS(=O)(=O)CCn1ccc(NC(=O)Cc2ccccc2Cl)n1` showed a cytotoxicity at 70.5 h of -1.99%. `O=C(C(c1ccccc1)S(=O)(=O)c1ccccn1)N1CCCCC1` (stereo not given) gave a cytotoxicity at 70.5 h of -7.07%. `NC(=O)C1CCN(C(=O)NC2CCN(CC3CCCC3)C2)CC1` (stereo not given) showed a cytotoxicity at 70.5 h of 9.67%. For `CN(C)Cc1ccnc(NS(=O)(=O)Cc2cccc(F)c2)c1`, the cytotoxicity at 70.5 h was 1.98%. Compound `CCN(C)S(=O)(=O)NCC(O)c1c(Cl)cccc1Cl` (stereo not given) has a cytotoxicity at 70.5 h of 18.4%. For `NC(=O)c1cn(CC2CCC2)c(C2CC2)n1`, the cytotoxicity at 70.5 h was 3.19%. For `Cn1cc(CNc2nc3cc(Cl)ccc3n2C)cn1`, the cytotoxicity at 70.5 h was -0.411%. `Cc1c(F)cccc1S(=O)(=O)Nc1noc(C(C)C)n1` showed a cytotoxicity at 70.5 h of -7.44%. `Cc1nc(NS(=O)(=O)c2cccc(F)c2C)no1` showed a cytotoxicity at 70.5 h of 6.79%. With `C=C(C)Cn1cc(C(N)=O)nc1C1CC1` the cytotoxicity at 70.5 h was 20.9%. Work on `CC(C)c1nnc2n1CC(CNC/C=C/c1ccccc1)CC2` (stereo not given) yielded a cytotoxicity at 70.5 h of -7.41%. `Cc1nn(C)c2ncc(CNCCc3ccccn3)cc12` showed a cytotoxicity at 70.5 h of -8.59%. In the case of `CN1CCN(C)C(CNC(=O)N(C)Cc2ccc(Cl)c(F)c2)C1` (stereo not given), the cytotoxicity at 70.5 h is reported as -11.2%. With `CCOc1c(F)cccc1C(=O)N(C)CCn1cccn1` the cytotoxicity at 70.5 h was 7.19%. In the case of `CC(C)c1cc(NC(=O)CNC2CCc3ncnn3C2)on1` (stereo not given), the cytotoxicity at 70.5 h is reported as 11.4%. Work on `CCOC(C)c1nccn1CCC(=O)Nc1cc(C)on1` (stereo not given) yielded a cytotoxicity at 70.5 h of 6.06%. `CC(C)c1nc(NS(=O)(=O)c2ccccc2Cl)no1` gave a cytotoxicity at 70.5 h of 0.444%. With `CCc1cc(C)c(C(=O)N2CCCC(c3nnn[nH]3)C2)o1` (stereo not given) the cytotoxicity at 70.5 h was -0.273%. For `Cc1n[nH]c(C2CN(CCNC3CCCCC3)CCO2)n1` (stereo not given), the cytotoxicity at 70.5 h was 3.49%. With `CC(C(=O)NC(C)(C)C)S(=O)(=O)Cc1noc(C(C)(C)C)n1` (stereo not given) the cytotoxicity at 70.5 h was -5.8%. Work on `Cc1ccc(CN(c2cc(C)nc3nc(C(F)(F)F)nn23)C2CC2)cc1` yielded a cytotoxicity at 70.5 h of 0.825%. For `CC(=O)C(Cc1ccccc1)NC(=O)CSc1nccn1C1CC1` (stereo not given), the cytotoxicity at 70.5 h was -0.98%. `Cc1cc(N(Cc2ccccn2)C2CC2)n2nc(C(F)(F)F)nc2n1` showed a cytotoxicity at 70.5 h of -0.852%. `O=C1CSc2ccc(C(=O)N3CCCC(n4ccnc4)C3)cc2N1` (stereo not given) showed a cytotoxicity at 70.5 h of -1.51%. For `CC(=O)NCc1ccc(S(=O)(=O)NC(=O)c2ccc3c(c2)COC3)s1`, the cytotoxicity at 70.5 h was 0.101%. Compound `N#CCCN(CC1CCOC1)Cn1ccc(-c2ccccc2)n1` (stereo not given) has a cytotoxicity at 70.5 h of -0.616%. Work on `CC(C)(C)c1cnc(CN2CCCS(=O)(=O)CC2)o1` yielded a cytotoxicity at 70.5 h of -1.34%. `CN1CCN(C2CCN(Cc3noc(C4CC4)n3)CC2)C1=O` showed a cytotoxicity at 70.5 h of -1.19%. `COCCN(c1cc(C)nc2nc(C(F)(F)F)nn12)C1CCCC1` showed a cytotoxicity at 70.5 h of 12.8%. `CC(=O)NCc1ccc(S(=O)(=O)NC(=O)c2ccc3c(c2)COC3)cc1` gave a cytotoxicity at 70.5 h of -4.89%. For `O=C(c1cnc2n1CCCC2)N1CCCC1`, the cytotoxicity at 70.5 h was -2.75%. Compound `N#CCCN(CC1CCOC1)Cn1ccc(-c2cccs2)n1` (stereo not given) has a cytotoxicity at 70.5 h of 8.39%. `Cc1nc(C)c(C(=O)N2CCc3cc(F)ccc3C2C)o1` (stereo not given) showed a cytotoxicity at 70.5 h of -4.82%. `CC(NCCn1cccn1)c1cc(F)ccc1F` (stereo not given) showed a cytotoxicity at 70.5 h of -3.98%. For `CC(NCCn1cccn1)c1ccc(F)cc1F` (stereo not given), the cytotoxicity at 70.5 h was -2.25%. In the case of `CCCC(C)CS(=O)(=O)NCc1cccnc1N(C)C` (stereo not given), the cytotoxicity at 70.5 h is reported as -1.93%. Compound `CNc1ncc(C(=O)N2CCCC(Cc3ccccc3OC)C2)s1` (stereo not given) has a cytotoxicity at 70.5 h of 20.4%. Work on `c1cc(CNCCC2CCCO2)ccn1` (stereo not given) yielded a cytotoxicity at 70.5 h of 5.59%. For `N#Cc1ccc(CN2CCCCC2Cn2cncn2)c(F)c1` (stereo not given), the cytotoxicity at 70.5 h was 4.33%. For `CC1CCCN(S(=O)(=O)NCCN/C(O)=C2/N=CC=CC2=O)C1` (stereo not given), the cytotoxicity at 70.5 h was 0.429%. With `Cc1cc(C)n(CC(C)CNC(=O)N(C)Cc2cc(C)on2)n1` (stereo not given) the cytotoxicity at 70.5 h was -8.81%. `Cc1cc(C)n(CC(C)CNC(=O)CCc2ccco2)n1` (stereo not given) showed a cytotoxicity at 70.5 h of -6.24%. In the case of `Cc1cc(C)n(CC(C)CNC(=O)N(C)Cc2ccco2)n1` (stereo not given), the cytotoxicity at 70.5 h is reported as -10.5%. Compound `CCN(Cc1cccc(C(N)=O)c1)c1ccccc1` has a cytotoxicity at 70.5 h of 12.2%. `Cc1nn(C)c2ncc(NC(=O)N(C)Cc3cnn(C)c3)cc12` showed a cytotoxicity at 70.5 h of -14%. `CCN(CC1CCOC1)S(=O)(=O)Cc1ccccc1Cl` (stereo not given) gave a cytotoxicity at 70.5 h of -6.21%. In the case of `CC(=O)N(C)CC(=O)NC(CC(C)C)c1cccs1` (stereo not given), the cytotoxicity at 70.5 h is reported as -5.7%. Work on `Cc1nc2ccccc2nc1CN1CCc2c(nc(C3CC3)n2C)C1` yielded a cytotoxicity at 70.5 h of -0.539%. Compound `COc1ccc(C(CC(=O)O)NC(=O)CCc2cccs2)cc1OC` (stereo not given) has a cytotoxicity at 70.5 h of 4.75%. `CC(NC(=O)NCCn1ccnc1)c1nncn1C` (stereo not given) gave a cytotoxicity at 70.5 h of 20.5%.
